Laboratory results taken from the kinase profiling compilation of Christmann-Franck et al. (2016).

Experiments:
Assay in all cases: radiometric filter-binding kinase assay, Kinase HotSpot
Details in all cases: compound 0.5 µM; ATP 10 µM
BMX (human) = BMX (human) (UniProt P51813)
CAMK2A (human) = CAMK2A (human) (UniProt Q9UQM7)
CAMK2G (human) = CAMK2G (human) (UniProt Q13555)
CDK2 CCNE1 (human) = CDK2 CCNE1 (human) (UniProt P24941+P24864)
CDK6 CCND3 (human) = CDK6 CCND3 (human) (UniProt P30281+Q00534)
CSF1R (human) = CSF1R (human) (UniProt P07333)
DYRK3 (human) = DYRK3 (human) (UniProt O43781)
EPHA3 (human) = EPHA3 (human) (UniProt P29320)
FER (human) = FER (human) (UniProt P16591)
GSG2 (human) = GSG2 (human) (UniProt Q8TF76)
IGF1R (human) = IGF1R (human) (UniProt P08069)
IRAK4 (human) = IRAK4 (human) (UniProt Q9NWZ3)
ITK (human) = ITK (human) (UniProt Q08881)
MAP2K1 (human) = MAP2K1 (human) (UniProt Q02750)
MAP2K2 (human) = MAP2K2 (human) (UniProt P36507)
MAP4K2 (human) = MAP4K2 (human) (UniProt Q12851)
MAP4K4 (human) = MAP4K4 (human) (UniProt O95819)
MAPK1 (human) = MAPK1 (human) (UniProt P28482)
MAPKAPK2 (human) = MAPKAPK2 (human) (UniProt P49137)
MATK (human) = MATK (human) (UniProt P42679)
MINK1 (human) = MINK1 (human) (UniProt Q8N4C8)
MST1R (human) = MST1R (human) (UniProt Q04912)
MUSK (human) = MUSK (human) (UniProt O15146)
NEK11 (human) = NEK11 (human) (UniProt Q8NG66)
PAK1 (human) = PAK1 (human) (UniProt Q13153)
PBK (human) = PBK (human) (UniProt Q96KB5)
PIM3 (human) = PIM3 (human) (UniProt Q86V86)
PKN1 (human) = PKN1 (human) (UniProt Q16512)
PRKCB2 (human) = PRKCB2 (human) (UniProt P05771)
PRKD1 (human) = PRKD1 (human) (UniProt Q15139)
PTK2 (human) = PTK2 (human) (UniProt Q05397)
ROCK1 (human) = ROCK1 (human) (UniProt Q13464)
ROCK2 (human) = ROCK2 (human) (UniProt O75116)
RPS6KA3 KD1 KD2 (human) = RPS6KA3 KD1 KD2 (human) (UniProt P51812)
RPS6KA4 KD2 (human) = RPS6KA4 KD2 (human) (UniProt O75676)
SLK (human) = SLK (human) (UniProt Q9H2G2)
SRC (human) = SRC (human) (UniProt P12931)
STK39 (human) = STK39 (human) (UniProt Q9UEW8)
TNK2 (human) = TNK2 (human) (UniProt Q07912)
[1] = biological target: TYK2 JH1 catalytic (human) (UniProt P29597)
WNK2 (human) = WNK2 (human) (UniProt Q9Y3S1)
YES1 (human) = YES1 (human) (UniProt P07947)

Chain of MAP2K2 (human) (P36507 whole entry, looked up): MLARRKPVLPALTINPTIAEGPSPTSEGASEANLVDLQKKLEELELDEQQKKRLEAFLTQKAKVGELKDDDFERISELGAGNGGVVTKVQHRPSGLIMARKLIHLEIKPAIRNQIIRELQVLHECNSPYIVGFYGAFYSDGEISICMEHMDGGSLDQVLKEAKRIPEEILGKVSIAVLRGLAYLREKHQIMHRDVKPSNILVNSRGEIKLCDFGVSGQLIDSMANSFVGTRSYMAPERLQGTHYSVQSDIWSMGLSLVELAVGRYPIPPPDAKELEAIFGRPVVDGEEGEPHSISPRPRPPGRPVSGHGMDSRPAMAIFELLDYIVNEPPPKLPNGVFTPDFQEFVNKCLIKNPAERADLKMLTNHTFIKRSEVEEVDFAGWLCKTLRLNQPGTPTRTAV
Chain of MINK1 (human) (Q8N4C8 whole entry, looked up): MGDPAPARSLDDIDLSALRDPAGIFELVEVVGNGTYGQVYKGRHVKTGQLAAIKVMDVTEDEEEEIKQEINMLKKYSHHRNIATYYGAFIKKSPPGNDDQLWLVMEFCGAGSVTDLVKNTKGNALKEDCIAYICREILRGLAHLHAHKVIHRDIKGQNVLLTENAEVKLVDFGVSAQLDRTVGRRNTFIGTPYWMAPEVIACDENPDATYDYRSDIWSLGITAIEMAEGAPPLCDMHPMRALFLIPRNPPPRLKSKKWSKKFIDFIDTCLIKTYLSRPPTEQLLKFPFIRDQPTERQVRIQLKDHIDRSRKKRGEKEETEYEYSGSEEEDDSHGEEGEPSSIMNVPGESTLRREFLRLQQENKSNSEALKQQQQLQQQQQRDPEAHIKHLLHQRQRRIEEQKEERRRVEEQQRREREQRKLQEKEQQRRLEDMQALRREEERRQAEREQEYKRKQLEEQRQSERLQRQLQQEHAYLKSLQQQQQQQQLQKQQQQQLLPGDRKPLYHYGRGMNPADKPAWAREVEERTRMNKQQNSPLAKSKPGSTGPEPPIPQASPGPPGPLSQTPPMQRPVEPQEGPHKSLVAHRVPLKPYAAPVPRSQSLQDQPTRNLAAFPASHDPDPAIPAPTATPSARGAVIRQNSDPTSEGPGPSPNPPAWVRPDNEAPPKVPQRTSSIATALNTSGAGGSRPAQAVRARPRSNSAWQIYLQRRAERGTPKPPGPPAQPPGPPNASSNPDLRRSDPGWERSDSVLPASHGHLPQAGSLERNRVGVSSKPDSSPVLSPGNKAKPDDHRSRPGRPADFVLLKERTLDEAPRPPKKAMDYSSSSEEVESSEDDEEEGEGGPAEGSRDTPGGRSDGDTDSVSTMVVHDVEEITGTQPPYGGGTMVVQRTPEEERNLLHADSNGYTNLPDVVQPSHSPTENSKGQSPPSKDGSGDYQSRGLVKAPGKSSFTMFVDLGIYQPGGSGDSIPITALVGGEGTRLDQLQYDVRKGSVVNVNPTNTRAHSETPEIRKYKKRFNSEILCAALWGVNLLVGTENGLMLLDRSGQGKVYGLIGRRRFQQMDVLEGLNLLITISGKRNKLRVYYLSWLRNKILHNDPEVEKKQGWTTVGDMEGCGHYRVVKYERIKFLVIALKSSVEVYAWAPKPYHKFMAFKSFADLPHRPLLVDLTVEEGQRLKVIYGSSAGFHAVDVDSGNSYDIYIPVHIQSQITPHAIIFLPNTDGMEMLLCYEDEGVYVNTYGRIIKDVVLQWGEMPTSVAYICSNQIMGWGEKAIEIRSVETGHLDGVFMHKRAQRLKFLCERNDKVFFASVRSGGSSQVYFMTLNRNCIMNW
Chain of IGF1R (human) (P08069 whole entry, looked up): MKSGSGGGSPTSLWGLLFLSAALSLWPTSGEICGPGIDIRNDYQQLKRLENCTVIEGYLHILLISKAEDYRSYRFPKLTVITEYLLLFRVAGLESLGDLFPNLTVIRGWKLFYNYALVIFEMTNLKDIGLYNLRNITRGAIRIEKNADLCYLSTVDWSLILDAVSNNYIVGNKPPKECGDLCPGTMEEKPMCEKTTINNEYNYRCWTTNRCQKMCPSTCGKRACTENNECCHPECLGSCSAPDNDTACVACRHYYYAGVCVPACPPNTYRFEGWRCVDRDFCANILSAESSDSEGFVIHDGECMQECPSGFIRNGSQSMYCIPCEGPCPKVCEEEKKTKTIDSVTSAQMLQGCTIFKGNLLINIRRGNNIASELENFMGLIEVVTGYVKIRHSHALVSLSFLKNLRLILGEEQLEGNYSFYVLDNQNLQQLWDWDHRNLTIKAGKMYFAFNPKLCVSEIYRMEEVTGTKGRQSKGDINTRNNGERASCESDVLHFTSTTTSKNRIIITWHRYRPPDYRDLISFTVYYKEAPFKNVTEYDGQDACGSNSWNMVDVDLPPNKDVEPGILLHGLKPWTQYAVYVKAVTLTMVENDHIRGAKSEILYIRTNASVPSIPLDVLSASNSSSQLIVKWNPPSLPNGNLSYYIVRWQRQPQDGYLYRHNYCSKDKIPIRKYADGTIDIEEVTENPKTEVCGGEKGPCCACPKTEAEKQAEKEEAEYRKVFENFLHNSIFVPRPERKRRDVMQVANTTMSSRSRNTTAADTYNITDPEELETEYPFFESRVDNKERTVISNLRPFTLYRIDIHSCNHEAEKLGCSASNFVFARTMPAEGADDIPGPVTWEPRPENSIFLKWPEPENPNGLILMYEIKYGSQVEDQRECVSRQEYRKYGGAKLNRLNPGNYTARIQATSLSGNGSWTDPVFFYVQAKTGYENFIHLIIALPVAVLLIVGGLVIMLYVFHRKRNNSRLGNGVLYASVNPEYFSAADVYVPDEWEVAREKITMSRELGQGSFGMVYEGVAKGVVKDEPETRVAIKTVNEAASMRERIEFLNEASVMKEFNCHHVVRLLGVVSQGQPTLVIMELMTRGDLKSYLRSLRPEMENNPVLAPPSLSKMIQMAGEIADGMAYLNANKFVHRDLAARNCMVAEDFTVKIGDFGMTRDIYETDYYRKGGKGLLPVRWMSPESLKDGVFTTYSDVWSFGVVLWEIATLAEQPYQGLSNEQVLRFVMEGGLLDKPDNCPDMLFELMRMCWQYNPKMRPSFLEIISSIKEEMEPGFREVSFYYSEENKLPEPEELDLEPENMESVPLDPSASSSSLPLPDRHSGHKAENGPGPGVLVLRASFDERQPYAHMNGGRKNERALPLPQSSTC
Chain of SRC (human) (P12931 whole entry, looked up): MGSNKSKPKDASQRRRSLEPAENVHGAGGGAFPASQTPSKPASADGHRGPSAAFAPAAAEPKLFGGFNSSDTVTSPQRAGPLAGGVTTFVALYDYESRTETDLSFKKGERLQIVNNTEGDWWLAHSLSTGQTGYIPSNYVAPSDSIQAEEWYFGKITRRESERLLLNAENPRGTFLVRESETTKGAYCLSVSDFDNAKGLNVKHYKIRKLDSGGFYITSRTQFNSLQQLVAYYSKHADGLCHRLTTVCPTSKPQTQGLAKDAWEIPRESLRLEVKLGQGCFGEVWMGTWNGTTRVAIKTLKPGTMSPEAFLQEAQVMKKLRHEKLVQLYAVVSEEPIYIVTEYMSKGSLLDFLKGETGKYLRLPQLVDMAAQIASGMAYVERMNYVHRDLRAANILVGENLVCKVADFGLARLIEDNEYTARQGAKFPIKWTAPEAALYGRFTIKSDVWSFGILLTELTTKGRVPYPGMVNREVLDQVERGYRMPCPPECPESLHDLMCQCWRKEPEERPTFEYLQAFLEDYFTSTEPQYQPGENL
Chain of MAPKAPK2 (human) (P49137 whole entry, looked up): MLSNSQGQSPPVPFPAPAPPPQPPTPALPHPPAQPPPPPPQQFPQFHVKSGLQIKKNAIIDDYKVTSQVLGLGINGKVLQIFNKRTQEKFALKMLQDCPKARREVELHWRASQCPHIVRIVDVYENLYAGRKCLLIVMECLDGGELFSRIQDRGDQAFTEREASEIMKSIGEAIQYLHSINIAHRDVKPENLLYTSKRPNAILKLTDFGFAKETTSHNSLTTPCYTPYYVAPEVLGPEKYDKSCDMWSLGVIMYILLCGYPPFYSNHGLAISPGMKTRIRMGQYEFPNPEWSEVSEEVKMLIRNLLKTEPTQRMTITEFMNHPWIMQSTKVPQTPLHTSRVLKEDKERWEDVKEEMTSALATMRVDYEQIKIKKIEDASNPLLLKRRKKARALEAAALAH
Chain of CSF1R (human) (P07333 whole entry, looked up): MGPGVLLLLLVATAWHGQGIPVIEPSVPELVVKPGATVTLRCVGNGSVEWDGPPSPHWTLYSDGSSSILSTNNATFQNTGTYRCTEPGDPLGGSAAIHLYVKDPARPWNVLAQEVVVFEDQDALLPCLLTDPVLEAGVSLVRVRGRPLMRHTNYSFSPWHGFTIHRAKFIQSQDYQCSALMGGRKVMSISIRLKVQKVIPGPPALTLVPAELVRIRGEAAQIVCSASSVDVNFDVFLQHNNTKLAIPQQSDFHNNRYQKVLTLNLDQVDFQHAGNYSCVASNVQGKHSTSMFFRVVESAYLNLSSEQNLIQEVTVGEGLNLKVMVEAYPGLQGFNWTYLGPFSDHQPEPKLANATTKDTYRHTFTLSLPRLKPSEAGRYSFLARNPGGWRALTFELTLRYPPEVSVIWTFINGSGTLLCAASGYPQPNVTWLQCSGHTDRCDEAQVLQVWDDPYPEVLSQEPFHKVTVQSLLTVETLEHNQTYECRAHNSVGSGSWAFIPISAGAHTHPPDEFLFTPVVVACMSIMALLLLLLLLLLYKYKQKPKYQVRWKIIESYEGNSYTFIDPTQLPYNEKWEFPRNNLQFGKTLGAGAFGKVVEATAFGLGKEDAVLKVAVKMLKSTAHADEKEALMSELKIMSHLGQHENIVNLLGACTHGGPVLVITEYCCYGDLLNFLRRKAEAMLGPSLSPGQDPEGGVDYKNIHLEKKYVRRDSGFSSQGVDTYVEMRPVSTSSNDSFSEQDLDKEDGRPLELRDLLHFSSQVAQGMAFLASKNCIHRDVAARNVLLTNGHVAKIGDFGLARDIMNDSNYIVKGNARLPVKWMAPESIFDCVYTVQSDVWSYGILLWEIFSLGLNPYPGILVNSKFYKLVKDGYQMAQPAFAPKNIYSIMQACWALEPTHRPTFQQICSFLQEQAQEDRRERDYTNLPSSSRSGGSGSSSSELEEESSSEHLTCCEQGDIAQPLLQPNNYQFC

Structure (SMILES): NC(=O)c1ccc(N(C(N)=O)c2c(F)cccc2F)nc1-c1ccc(F)cc1F
- residual activity (BMX (human)): 108%
- residual activity (CAMK2A (human)): 90.9%
- residual activity (CAMK2G (human)): 105%
- residual activity (CDK2 CCNE1 (human)): 93.1%
- residual activity (CDK6 CCND3 (human)): 119%
- residual activity (CSF1R (human)): 109%
- residual activity (DYRK3 (human)): 105%
- residual activity (EPHA3 (human)): 97%
- residual activity (FER (human)): 95.6%
- residual activity (GSG2 (human)): 81.3%
- residual activity (IGF1R (human)): 92.3%
- residual activity (IRAK4 (human)): 87.5%
- residual activity (ITK (human)): 105%
- residual activity (MAP2K1 (human)): 89%
- residual activity (MAP2K2 (human)): 92.3%
- residual activity (MAP4K2 (human)): 108%
- residual activity (MAP4K4 (human)): 108%
- residual activity (MAPK1 (human)): 85.7%
- residual activity (MAPKAPK2 (human)): 98.9%
- residual activity (MATK (human)): 77.6%
- residual activity (MINK1 (human)): 100%
- residual activity (MST1R (human)): 90.1%
- residual activity (MUSK (human)): 102%
- residual activity (NEK11 (human)): 92.9%
- residual activity (PAK1 (human)): 110%
- residual activity (PBK (human)): 110%
- residual activity (PIM3 (human)): 97.7%
- residual activity (PKN1 (human)): 101%
- residual activity (PRKCB2 (human)): 94.6%
- residual activity (PRKD1 (human)): 97.7%
- residual activity (PTK2 (human)): 98.9%
- residual activity (ROCK1 (human)): 108%
- residual activity (ROCK2 (human)): 97.7%
- residual activity (RPS6KA3 KD1 KD2 (human)): 99.8%
- residual activity (RPS6KA4 KD2 (human)): 99%
- residual activity (SLK (human)): 90.7%
- residual activity (SRC (human)): 109%
- residual activity (STK39 (human)): 93.7%
- residual activity (TNK2 (human)): 96.1%
- residual activity [1]: 93.5%
- residual activity (WNK2 (human)): 96.4%
- residual activity (YES1 (human)): 97.8%

Structure (SMILES): O=c1cc(-c2cccc3c2Sc2ccccc2S3)oc(N2CCOCC2)c1
- residual activity (BMX (human)): 112%
- residual activity (CAMK2A (human)): 100%
- residual activity (CAMK2G (human)): 106%
- residual activity (CDK2 CCNE1 (human)): 84.6%
- residual activity (CDK6 CCND3 (human)): 106%
- residual activity (CSF1R (human)): 91.9%
- residual activity (DYRK3 (human)): 84.3%
- residual activity (EPHA3 (human)): 119%
- residual activity (FER (human)): 103%
- residual activity (GSG2 (human)): 106%
- residual activity (IGF1R (human)): 98.2%
- residual activity (IRAK4 (human)): 160%
- residual activity (ITK (human)): 96.6%
- residual activity (MAP2K1 (human)): 94.9%
- residual activity (MAP2K2 (human)): 81.8%
- residual activity (MAP4K2 (human)): 109%
- residual activity (MAP4K4 (human)): 93.2%
- residual activity (MAPK1 (human)): 100%
- residual activity (MAPKAPK2 (human)): 94.2%
- residual activity (MATK (human)): 102%
- residual activity (MINK1 (human)): 100%
- residual activity (MST1R (human)): 111%
- residual activity (MUSK (human)): 89.1%
- residual activity (NEK11 (human)): 88.5%
- residual activity (PAK1 (human)): 92.3%
- residual activity (PBK (human)): 99.4%
- residual activity (PIM3 (human)): 52.3%
- residual activity (PKN1 (human)): 94.4%
- residual activity (PRKCB2 (human)): 105%
- residual activity (PRKD1 (human)): 90.3%
- residual activity (PTK2 (human)): 113%
- residual activity (ROCK1 (human)): 101%
- residual activity (ROCK2 (human)): 109%
- residual activity (RPS6KA3 KD1 KD2 (human)): 102%
- residual activity (RPS6KA4 KD2 (human)): 88.1%
- residual activity (SLK (human)): 93.5%
- residual activity (SRC (human)): 106%
- residual activity (STK39 (human)): 84%
- residual activity (TNK2 (human)): 95.7%
- residual activity [1]: 95.8%
- residual activity (WNK2 (human)): 116%
- residual activity (YES1 (human)): 89.4%

Structure (SMILES): Oc1ccc(-c2nc(-c3ccc(F)cc3)c(-c3ccncc3)[nH]2)cc1
- residual activity (BMX (human)): 93.9%
- residual activity (CAMK2A (human)): 104%
- residual activity (CAMK2G (human)): 101%
- residual activity (CDK2 CCNE1 (human)): 90.6%
- residual activity (CDK6 CCND3 (human)): 104%
- residual activity (CSF1R (human)): 96.9%
- residual activity (DYRK3 (human)): 101%
- residual activity (EPHA3 (human)): 99%
- residual activity (FER (human)): 94.5%
- residual activity (GSG2 (human)): 86.9%
- residual activity (IGF1R (human)): 108%
- residual activity (IRAK4 (human)): 124%
- residual activity (ITK (human)): 90.9%
- residual activity (MAP2K1 (human)): 93%
- residual activity (MAP2K2 (human)): 101%
- residual activity (MAP4K2 (human)): 101%
- residual activity (MAP4K4 (human)): 86.5%
- residual activity (MAPK1 (human)): 97.2%
- residual activity (MAPKAPK2 (human)): 99.2%
- residual activity (MATK (human)): 90.3%
- residual activity (MINK1 (human)): 102%
- residual activity (MST1R (human)): 102%
- residual activity (MUSK (human)): 86.8%
- residual activity (NEK11 (human)): 80.6%
- residual activity (PAK1 (human)): 97.3%
- residual activity (PBK (human)): 100%
- residual activity (PIM3 (human)): 98.7%
- residual activity (PKN1 (human)): 78.9%
- residual activity (PRKCB2 (human)): 75%
- residual activity (PRKD1 (human)): 90.7%
- residual activity (PTK2 (human)): 96.9%
- residual activity (ROCK1 (human)): 101%
- residual activity (ROCK2 (human)): 93.6%
- residual activity (RPS6KA3 KD1 KD2 (human)): 96.1%
- residual activity (RPS6KA4 KD2 (human)): 95.9%
- residual activity (SLK (human)): 91.2%
- residual activity (SRC (human)): 85.9%
- residual activity (STK39 (human)): 94.8%
- residual activity (TNK2 (human)): 83.2%
- residual activity [1]: 106%
- residual activity (WNK2 (human)): 102%
- residual activity (YES1 (human)): 84.7%
